Reference: US20230118577A1, “NEUROACTIVE STEROIDS AND PHARMACEUTICAL COMPOSITION CONTAINING THE SAME” (Brii Biosciences, Inc., priority 2020, published 2023)
Like-named read-outs stand apart in the source and are kept apart here.

Experiments:
GABAA α1β2γ2 = biological target: T1, GABAA α1β2γ2 (Homo sapiens, UniProt P14867+P47870); assay: Automated patch clamp electrophysiology (SyncroPatch), PAM mode, GABAA α1β2γ2 cell line; assay type: cell-based; details: for Emax: maximum fold increase in current relative to Allopregnanolone, GABA EC20 14 μM, read-out: GABAA α1β2γ2 PAM % Emax (to Allo)
T1 construct: expressed in transfected cells; host or cells: HEK293 expressing the Tetracycline repressor protein
Source text: (§1) Cellular electrophysiology was used to measure the pharmacology properties of the GABA receptor modulators. The GABAA channels are expressed in stable cell lines described herein. The parental cell line used to express the human GABAA channels is the human embryonic kidney (HEK293) cell line expressing the Tetracycline repressor protein to support inducible expression of the target proteins.
(§2) For the GABAA α4β3δ cell line, the α4 and β3 subunits are under control of tetracycline inducible expression system, while the δ subunit is constitutively expressed. For the GABAA α1β2γ2 cell line, the α1 and β2 subunits are under control of tetracycline inducible expression system, whist the γ2 subunit is constitutively expressed.
(§3) Assessment of the compounds against GABAA α1β2γ2 and GABAA α4β3δ was performed using the SyncroPatch automated platform in positive allosteric modulator (PAM) mode. Six concentrations of 20 nM, 62 nM, 185 nM, 555 nM, 1667 nM and 5000 nM were tested across the plate, with a single concentration of compound per well. A minimum of 3 cells were obtained per each concentration of a compound.
(§4) Automated patch clamp-recordings were performed using the SyncroPatch 384PE. The voltage protocol generation and data collection were performed with PatchController384 V1.6.6 and Data Controller V1.6.0. A steady state voltage pulse at −80 mV was applied during the assay.
(§5) The stacked addition protocol was used, in which γ-aminobutyric acid (GABA) was rapidly applied and then washed off from the cell. To test for positive allosteric modulator activity (PAM), first the agonist GABA EC20 (EC20: 10 μM for GABAA α4β3δ channel and 14 μM GABA for the GABAA α1β2γ2 channel) was applied twice (with wash steps in-between) as a control and to show activation reproducibility, followed by a 1-2 minutes pre-incubation of the tested compound and then re-application of GABA EC20 in the presence of a testing compound. Finally, following a further wash step, maximum GABA (10 mM) was applied.
(§6) An Allopregnanolone concentration response was tested as the control PAM on the compound plates. The fold increase was generated using the following equation, (Icomp/Icontrol)−1, where Icomp is the current amplitude in the presence of the compound and Icontrol is the current amplitude in the presence of GABA EC20 alone. This builds an EC50 concentration-response curve, where 0 represents no PAM activity and >0 represents PAM activity.
(§7) A maximum % Emax for each compound is generated using the following equation, (IMaxComp/IAveMaxAllo)*100, where IMaxcomp is the individual maximum fold increase in current for each compound and IAveMaxAllo is the average maximum fold increase generated in the presence of Allopregnanolone. The resultant % Emax values are then averaged. The compound and Allopregnanolone values were obtained from separate cells which were tested in the same compound run. Two GABAA subtypes were tested against each of the compounds as well as the positive control, Allopregnanolone.

GABAA α4β3δ = biological target: T2, GABAA α4β3δ (Homo sapiens, UniProt P28472+P48169); assay: Automated patch clamp electrophysiology (SyncroPatch), PAM mode, GABAA α4β3δ cell line; assay type: cell-based; details: for Emax: maximum fold increase in current relative to Allopregnanolone, read-out: GABAA α4β3δ PAM % Emax (to Allo)
T2 construct: expressed in transfected cells; host or cells: HEK293 expressing the Tetracycline repressor protein
Source text: as §1, §2, §3, §4, §5, §6, §7

[1] = PAM mode, HEK293 cells expressing human GABAA α1β2γ2, GABA EC20 14 μM, read-out: GABAA α1β2γ2 PAM EC50
[2] = PAM mode, HEK293 cells expressing human GABAA α4β3δ, GABA EC20 10 μM, read-out: GABAA α4β3δ PAM EC50

T2 sequence (P48169 36-554): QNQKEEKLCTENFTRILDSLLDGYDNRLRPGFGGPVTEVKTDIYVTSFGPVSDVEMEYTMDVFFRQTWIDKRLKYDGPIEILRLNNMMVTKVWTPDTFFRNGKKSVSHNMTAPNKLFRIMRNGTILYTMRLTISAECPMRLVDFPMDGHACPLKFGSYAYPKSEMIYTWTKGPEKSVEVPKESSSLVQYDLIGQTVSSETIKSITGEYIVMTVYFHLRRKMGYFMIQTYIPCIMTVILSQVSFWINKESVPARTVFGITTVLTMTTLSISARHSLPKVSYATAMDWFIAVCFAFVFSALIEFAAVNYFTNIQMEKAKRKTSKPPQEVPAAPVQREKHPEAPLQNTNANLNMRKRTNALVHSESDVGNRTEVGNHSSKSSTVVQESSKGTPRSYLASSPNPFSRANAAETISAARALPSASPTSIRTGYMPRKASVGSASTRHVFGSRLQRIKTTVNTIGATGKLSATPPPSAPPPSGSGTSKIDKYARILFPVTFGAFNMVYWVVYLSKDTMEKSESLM
T2 sequence (P28472 26-473): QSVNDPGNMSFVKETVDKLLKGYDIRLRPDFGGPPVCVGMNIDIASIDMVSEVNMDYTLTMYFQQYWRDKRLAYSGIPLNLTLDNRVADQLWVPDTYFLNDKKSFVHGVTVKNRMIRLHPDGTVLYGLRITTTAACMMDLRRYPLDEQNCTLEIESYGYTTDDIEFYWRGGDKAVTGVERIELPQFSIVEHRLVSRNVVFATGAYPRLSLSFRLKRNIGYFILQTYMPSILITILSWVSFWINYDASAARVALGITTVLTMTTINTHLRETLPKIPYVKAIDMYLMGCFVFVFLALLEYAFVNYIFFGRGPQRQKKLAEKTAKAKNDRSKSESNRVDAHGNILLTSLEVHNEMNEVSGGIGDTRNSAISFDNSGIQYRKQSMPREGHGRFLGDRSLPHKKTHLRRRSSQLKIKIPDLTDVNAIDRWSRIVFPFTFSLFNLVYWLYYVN
T2 sequence (O14764 17-452 partner limits assumed): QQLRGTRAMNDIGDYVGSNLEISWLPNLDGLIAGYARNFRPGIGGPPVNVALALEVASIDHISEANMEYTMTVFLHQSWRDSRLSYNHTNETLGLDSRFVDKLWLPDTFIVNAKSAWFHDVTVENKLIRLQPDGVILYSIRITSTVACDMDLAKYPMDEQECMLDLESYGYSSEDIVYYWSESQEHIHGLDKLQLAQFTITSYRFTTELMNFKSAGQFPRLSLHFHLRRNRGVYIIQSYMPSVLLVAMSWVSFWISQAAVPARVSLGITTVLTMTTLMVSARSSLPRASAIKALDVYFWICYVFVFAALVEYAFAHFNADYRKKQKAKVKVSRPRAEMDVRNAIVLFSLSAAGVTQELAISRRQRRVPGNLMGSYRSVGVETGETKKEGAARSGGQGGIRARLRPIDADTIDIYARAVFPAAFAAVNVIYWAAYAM
T1 sequence (P14867 28-456): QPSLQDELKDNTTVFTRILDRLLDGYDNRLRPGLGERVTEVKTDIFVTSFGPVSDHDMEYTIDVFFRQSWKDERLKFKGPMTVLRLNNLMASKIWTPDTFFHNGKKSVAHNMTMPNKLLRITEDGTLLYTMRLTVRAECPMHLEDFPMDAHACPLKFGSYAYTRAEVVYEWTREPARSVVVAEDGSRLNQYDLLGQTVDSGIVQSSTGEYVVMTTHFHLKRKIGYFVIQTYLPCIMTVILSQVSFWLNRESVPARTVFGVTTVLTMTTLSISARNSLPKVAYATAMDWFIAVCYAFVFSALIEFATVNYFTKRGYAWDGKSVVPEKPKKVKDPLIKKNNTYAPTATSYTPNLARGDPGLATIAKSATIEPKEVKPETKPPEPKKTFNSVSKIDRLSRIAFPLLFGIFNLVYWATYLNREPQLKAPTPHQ
T1 sequence (P47870 25-512 limits assumed): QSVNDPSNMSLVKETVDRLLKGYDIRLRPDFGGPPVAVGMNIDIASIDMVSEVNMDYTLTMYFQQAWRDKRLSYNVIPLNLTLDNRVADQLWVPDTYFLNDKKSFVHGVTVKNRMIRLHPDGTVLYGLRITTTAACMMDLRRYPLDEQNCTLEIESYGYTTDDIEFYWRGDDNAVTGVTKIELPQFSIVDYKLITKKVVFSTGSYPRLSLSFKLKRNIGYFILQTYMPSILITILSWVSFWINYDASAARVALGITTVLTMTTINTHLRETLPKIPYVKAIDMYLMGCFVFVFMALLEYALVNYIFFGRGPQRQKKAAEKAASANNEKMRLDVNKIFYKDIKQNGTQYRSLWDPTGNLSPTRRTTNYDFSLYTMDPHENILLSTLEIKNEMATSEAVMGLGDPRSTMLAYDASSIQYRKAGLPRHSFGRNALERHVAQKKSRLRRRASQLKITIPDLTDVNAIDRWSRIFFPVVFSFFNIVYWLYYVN
T1 sequence (P18507 40-475 partner): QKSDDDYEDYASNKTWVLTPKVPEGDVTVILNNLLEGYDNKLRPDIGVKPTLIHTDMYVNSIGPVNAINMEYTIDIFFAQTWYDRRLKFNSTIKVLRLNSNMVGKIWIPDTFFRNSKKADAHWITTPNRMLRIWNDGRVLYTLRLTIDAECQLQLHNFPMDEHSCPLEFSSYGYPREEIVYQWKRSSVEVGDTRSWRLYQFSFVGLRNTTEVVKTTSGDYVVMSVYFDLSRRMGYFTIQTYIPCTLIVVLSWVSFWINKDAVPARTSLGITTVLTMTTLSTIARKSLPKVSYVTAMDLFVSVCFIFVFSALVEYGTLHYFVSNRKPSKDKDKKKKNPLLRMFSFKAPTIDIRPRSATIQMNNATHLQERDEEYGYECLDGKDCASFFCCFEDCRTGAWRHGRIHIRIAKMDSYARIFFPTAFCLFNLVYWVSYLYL

C#CC1([C@H]2CC[C@H]3[C@@H]4CC[C@@H]5C[C@](C)(O)CC[C@@H]5[C@H]4CC[C@]23C)COC1 [Example 22, (3R,5R,8R,9R,10S,13S,14S,17S)-17-(3-ethynyloxetan-3-yl)-3,13-dimethyl-2,4,5,6,7,8,9,10,11,12,14,15,16,17-tetradecahydro-1H-cyclopenta[a]phenanthren-3-ol]
EC50 (GABAA α1β2γ2; [1]): < 0.5 µM
Emax (GABAA α1β2γ2; PAM mode): > 90%
EC50 (GABAA α4β3δ; [2]): > 1.5 µM
Emax (GABAA α4β3δ; PAM mode, GABA EC20 10 μM): 50 to 90%

C[C@@]1(O)CC[C@H]2[C@H](CC[C@@H]3[C@@H]2CC[C@]2(C)[C@@H](C4COC4)CC[C@@H]32)C1 [Example 23, (3R,5R,8R,9R,10S,13S,14S,17R)-17-(oxetan-3-yl)-3,13-dimethyl-2,4,5,6,7,8,9,10,11,12,14,15,16,17-tetradecahydro-1H-cyclopenta[a]phenanthren-3-ol]
EC50 (GABAA α1β2γ2; [1]): < 0.5 µM
Emax (GABAA α1β2γ2; PAM mode): 50 to 90%
EC50 (GABAA α4β3δ; [2]): < 0.5 µM
Emax (GABAA α4β3δ; PAM mode, GABA EC20 10 μM): 50 to 90%

CC(=O)[C@H]1CC[C@H]2[C@@H]3CC[C@H]4C[C@H](O)CC[C@]4(C)[C@H]3CC[C@]12C [allopregnanolone, 5α-pregnane-3α-ol-20-one, reference compound]
EC50 (GABAA α1β2γ2): < 0.5 µM
Emax (GABAA α1β2γ2; PAM mode): > 90%
EC50 (GABAA α4β3δ): < 0.5 µM
Emax (GABAA α4β3δ; PAM mode, GABA EC20 10 μM): > 90%
